Results reported in patent US9833497B2, “Human originated EGF domain proteins and use of the same” (CHENGDU SOURCEBIO LIMITED-LIABILITY COMPANY, priority 2013, dated 2017).

What was measured:
Type in all cases: cell-based
E. coli DH5α = experiment: Antibacterial activity: MIC and growth curve against E. coli DH5α in 96-well plate; settings: minimal inhibitory concentration against E. coli DH5α; 96-well plate, 5×10^5 CFU/mL, 37° C., judged after 8 h
Method in brief: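 Log-phase bacteria (OD600 ~0.5) resuspended in LB at 5×10^5 CFU/mL, exposed to recombinant protein at 50, 25, 12.5 μg/mL final in triplicate, 37 °C shaking at 175 rpm. OD600 read every 30 min; MIC is lowest concentration showing no growth.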

E. coli BL21 = experiment: MIC against Gram-negative bacteria: E. coli BL21; settings: E. coli BL21; for MIC against E. coli BL21 / MIC (μg/mL) E. coli BL21: 5×10^5 CFU/mL
Method in brief: (§1)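 LB broth cultures at McFarland 0.5, spun down, resuspended, diluted to 5×10^5 CFU/mL final. Two-fold serial dilutions of purified human EGF domain proteins, triplicate. 37° C, 175 rpm shaking. Endpoint: no visible growth.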

Pseudomonas aeruginosa = experiment: MIC against Gram-negative bacteria: Pseudomonas aeruginosa; settings: for MIC against P. aeruginosa / MIC (μg/mL) P. aeruginosa: 5×10^5 CFU/mL
Method in brief: as §1

Klebsiella pneumonia = experiment: MIC against Gram-negative bacteria: Klebsiella pneumonia; settings: for MIC against K. pneumonia / MIC (μg/mL) K. pneumonia: 5×10^5 CFU/mL
Method in brief: as §1

Enterobacter cloacae = experiment: MIC against Gram-negative bacteria: Enterobacter cloacae; settings: for MIC against E. cloacae / MIC (μg/mL) E. cloacae: 5×10^5 CFU/mL
Method in brief: as §1

Aeromonas hydrophila = experiment: MIC against Gram-negative bacteria: Aeromonas hydrophila; settings: for MIC against A. hydrophila / MIC (μg/mL) A. hydrophila: 5×10^5 CFU/mL
Method in brief: as §1

Citrobacter diversus = experiment: MIC against Gram-negative bacteria: Citrobacter diversus; settings: for MIC against C. diversus / MIC (μg/mL) C. diversus: 5×10^5 CFU/mL
Method in brief: as §1

Moraxella catarrhalis = experiment: MIC against Gram-negative bacteria: Moraxella catarrhalis; settings: for MIC against M. catarrhalis / MIC (μg/mL) M. catarrhalis: 5×10^5 CFU/mL
Method in brief: as §1

Proteus mirabilis = experiment: MIC against Gram-negative bacteria: Proteus mirabilis; settings: for MIC against P. mirabilis / MIC (μg/mL) P. mirabilis: 5×10^5 CFU/mL
Method in brief: as §1

Proteus vulgaris = experiment: MIC against Gram-negative bacteria: Proteus vulgaris; settings: for MIC against P. vulgaris / MIC (μg/mL) P. vulgaris: 5×10^5 CFU/mL
Method in brief: as §1

Serratia marcescens = experiment: MIC against Gram-negative bacteria: Serratia marcescens; settings: for MIC against S. marcescens / MIC (μg/mL) S. marcescens: 5×10^5 CFU/mL
Method in brief: as §1

[1] = Pseudomonas aeruginosa, 10 h cultivation at 37° C.
[2] = Klebsiella pneumonia, 10 h cultivation at 37° C.
[3] = Enterobacter cloacae, 10 h cultivation at 37° C.
[4] = Aeromonas hydrophila, 10 h cultivation at 37° C.
[5] = Citrobacter diversus, 10 h cultivation at 37° C.
[6] = Moraxella catarrhalis, 10 h cultivation at 37° C.
[7] = Proteus mirabilis, 10 h cultivation at 37° C.
[8] = Proteus vulgaris, 10 h cultivation at 37° C.
[9] = Serratia marcescens, 10 h cultivation at 37° C.
[10] = P. aeruginosa, 10 h cultivation at 37° C.
[11] = K. pneumonia, 10 h cultivation at 37° C.
[12] = E. cloacae, 10 h cultivation at 37° C.
[13] = A. hydrophila, 10 h cultivation at 37° C.
[14] = C. diversus, 10 h cultivation at 37° C.
[15] = M. catarrhalis, 10 h cultivation at 37° C.
[16] = P. mirabilis, 10 h cultivation at 37° C.
[17] = P. vulgaris, 10 h cultivation at 37° C.
[18] = S. marcescens, 10 h cultivation at 37° C.

## PRT1407 (LKTMCPDQCSGHGTYLQESGSCTCDPNWTGPDCS; listed as Homo sapiens)
E. coli DH5α
  MIC: 50 µg/mL
E. coli BL21; 10 h cultivation at 37° C.
  MIC against E. coli BL21: 25 µg/mL
Pseudomonas aeruginosa; [1]
  MIC against P. aeruginosa: 12.5 µg/mL
Klebsiella pneumonia; [2]
  MIC against K. pneumonia: 12.5 µg/mL
Enterobacter cloacae; [3]
  MIC against E. cloacae: 12.5 µg/mL
Aeromonas hydrophila; [4]
  MIC against A. hydrophila: 50 µg/mL
Citrobacter diversus; [5]
  MIC against C. diversus: 12.5 µg/mL
Moraxella catarrhalis; [6]
  MIC against M. catarrhalis: 50 µg/mL
Proteus mirabilis; [7]
  MIC against P. mirabilis: 12.5 µg/mL
Proteus vulgaris; [8]
  MIC against P. vulgaris: 12.5 µg/mL
Serratia marcescens; [9]
  MIC against S. marcescens: 25 µg/mL

## PRT823 (FGEACAQRCSCPPGAACHHVTGACRCPPGFTGSGCE; listed as Homo sapiens)
E. coli DH5α
  MIC: 25 µg/mL
E. coli BL21; 10 h cultivation at 37° C.
  MIC (μg/mL) E. coli BL21: 12.5 µg/mL
Pseudomonas aeruginosa; [10]
  MIC (μg/mL) P. aeruginosa: 25 µg/mL
Klebsiella pneumonia; [11]
  MIC (μg/mL) K. pneumonia: 12.5 µg/mL
Enterobacter cloacae; [12]
  MIC (μg/mL) E. cloacae: 25 µg/mL
Aeromonas hydrophila; [13]
  MIC (μg/mL) A. hydrophila: 12.5 µg/mL
Citrobacter diversus; [14]
  MIC (μg/mL) C. diversus: 25 µg/mL
Moraxella catarrhalis; [15]
  MIC (μg/mL) M. catarrhalis: 50 µg/mL
Proteus mirabilis; [16]
  MIC (μg/mL) P. mirabilis: 25 µg/mL
Proteus vulgaris; [17]
  MIC (μg/mL) P. vulgaris: 12.5 µg/mL
Serratia marcescens; [18]
  MIC (μg/mL) S. marcescens: 50 µg/mL

## PRT1369 (ASGSCPDDCNDQGRCVRGRCVCFPGYTGPSC; listed as Homo sapiens)
E. coli DH5α
  MIC: 12.5 µg/mL
E. coli BL21; 10 h cultivation at 37° C.
  MIC against E. coli BL21: 12.5 µg/mL
Pseudomonas aeruginosa; [1]
  MIC against P. aeruginosa: 12.5 µg/mL
Klebsiella pneumonia; [2]
  MIC against K. pneumonia: 12.5 µg/mL
Enterobacter cloacae; [3]
  MIC against E. cloacae: 25 µg/mL
Aeromonas hydrophila; [4]
  MIC against A. hydrophila: 12.5 µg/mL
Citrobacter diversus; [5]
  MIC against C. diversus: 12.5 µg/mL
Moraxella catarrhalis; [6]
  MIC against M. catarrhalis: 12.5 µg/mL
Proteus mirabilis; [7]
  MIC against P. mirabilis: 25 µg/mL
Proteus vulgaris; [8]
  MIC against P. vulgaris: 12.5 µg/mL
Serratia marcescens; [9]
  MIC against S. marcescens: 25 µg/mL

## PRT774 (LTLRCDYYGCNQTADDCLNGLACDCKSDLQRPNPQSPFCV; listed as Homo sapiens)
E. coli DH5α
  MIC: 50 µg/mL
E. coli BL21; 10 h cultivation at 37° C.
  MIC (μg/mL) E. coli BL21: 12.5 µg/mL
Pseudomonas aeruginosa; [10]
  MIC (μg/mL) P. aeruginosa: 12.5 µg/mL
Klebsiella pneumonia; [11]
  MIC (μg/mL) K. pneumonia: 25 µg/mL
Enterobacter cloacae; [12]
  MIC (μg/mL) E. cloacae: 12.5 µg/mL
Aeromonas hydrophila; [13]
  MIC (μg/mL) A. hydrophila: 25 µg/mL
Citrobacter diversus; [14]
  MIC (μg/mL) C. diversus: 12.5 µg/mL
Moraxella catarrhalis; [15]
  MIC (μg/mL) M. catarrhalis: 12.5 µg/mL
Proteus mirabilis; [16]
  MIC (μg/mL) P. mirabilis: 12.5 µg/mL
Proteus vulgaris; [17]
  MIC (μg/mL) P. vulgaris: 12.5 µg/mL
Serratia marcescens; [18]
  MIC (μg/mL) S. marcescens: 50 µg/mL

## PRT896 (EVNECNSNPCVHGACRDSLNGYKCDCDPGWSGTNCD; listed as Homo sapiens)
E. coli DH5α
  MIC: 25 µg/mL
E. coli BL21; 10 h cultivation at 37° C.
  MIC: 50 µg/mL
Pseudomonas aeruginosa; [10]
  MIC: 25 µg/mL
Klebsiella pneumonia; [11]
  MIC: 12.5 µg/mL
Enterobacter cloacae; [12]
  MIC: 50 µg/mL
Aeromonas hydrophila; [13]
  MIC: 12.5 µg/mL
Citrobacter diversus; [14]
  MIC: 50 µg/mL
Moraxella catarrhalis; [15]
  MIC: 12.5 µg/mL
Proteus mirabilis; [16]
  MIC: 25 µg/mL
Proteus vulgaris; [17]
  MIC: 50 µg/mL
Serratia marcescens; [18]
  MIC: 12.5 µg/mL

## PRT1003 (STDYCVSAPCFNGGTCVNRPGTFSCLCAMGFQGPRCE; listed as Homo sapiens)
E. coli DH5α
  MIC: 50 µg/mL
E. coli BL21; 10 h cultivation at 37° C.
  MIC: 12.5 µg/mL
Pseudomonas aeruginosa; [10]
  MIC: 25 µg/mL
Klebsiella pneumonia; [11]
  MIC: 50 µg/mL
Enterobacter cloacae; [12]
  MIC: 25 µg/mL
Aeromonas hydrophila; [13]
  MIC: 25 µg/mL
Citrobacter diversus; [14]
  MIC: 12.5 µg/mL
Moraxella catarrhalis; [15]
  MIC: 25 µg/mL
Proteus mirabilis; [16]
  MIC: 50 µg/mL
Proteus vulgaris; [17]
  MIC: 25 µg/mL
Serratia marcescens; [18]
  MIC: 12.5 µg/mL

## PRT97 (DSRGCARWCPQNSSCVNATACRCNPGFSSFSEIITTPTETCD; listed as Homo sapiens)
E. coli DH5α
  MIC: 25 µg/mL
E. coli BL21; 96-well plate, 37° C., 10 h
  MIC (μg/mL) E. coli BL21: 12.5 µg/mL
Pseudomonas aeruginosa; Pseudomonas aeruginosa, 96-well plate, 37° C., 10 h
  MIC (μg/mL) P. aeruginosa: 25 µg/mL
Klebsiella pneumonia; Klebsiella pneumonia, 96-well plate, 37° C., 10 h
  MIC (μg/mL) K. pneumonia: 12.5 µg/mL
Enterobacter cloacae; Enterobacter cloacae, 96-well plate, 37° C., 10 h
  MIC (μg/mL) E. cloacae: 12.5 µg/mL
Aeromonas hydrophila; Aeromonas hydrophila, 96-well plate, 37° C., 10 h
  MIC (μg/mL) A. hydrophila: 12.5 µg/mL
Citrobacter diversus; Citrobacter diversus, 96-well plate, 37° C., 10 h
  MIC (μg/mL) C. diversus: 50 µg/mL
Moraxella catarrhalis; Moraxella catarrhalis, 96-well plate, 37° C., 10 h
  MIC (μg/mL) M. catarrhalis: 100 µg/mL
Proteus mirabilis; Proteus mirabilis, 96-well plate, 37° C., 10 h
  MIC (μg/mL) P. mirabilis: 50 µg/mL
Proteus vulgaris; Proteus vulgaris, 96-well plate, 37° C., 10 h
  MIC (μg/mL) P. vulgaris: 12.5 µg/mL
Serratia marcescens; Serratia marcescens, 96-well plate, 37° C., 10 h
  MIC (μg/mL) S. marcescens: 50 µg/mL
